Assay results published in PubChem BioAssay AID2060617 (Molecular Pharmacology Branch, DTP, NCI, 2025).
“And” between values parts separate entries of the source, which are not always exact repeats. Identical values can stand only once.

Tested on: 485368-065-R4-J2-PDC spheroids with HUVEC/MSC, viability
Experiment: Anticancer human tumor 485368-065-R4-J2-PDC patient-derived pancreatic carcinoma cell line growth inhibition [CLK]
Conditions: for viability, T/C: stronger effect = lower value; active means viability on the fitted dose curve at most 10% of control; inactive means the rest
How it was run: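 Patient-derived tumor cells grown as complex spheroids with HUVEC endothelial cells and mesenchymal stem cells, treated with drug combinations. Concentrations descend in half-log steps from near clinical Cmax, or from 10 microM if Cmax unknown.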

[1] = curve of first compound, second compound 0.0316 µM
[2] = curve of first compound, second compound 0.1 µM
[3] = curve of first compound, second compound 0.316 µM
[4] = curve of first compound, second compound 1 µM
[5] = curve of first compound, second compound 3.16 µM
[6] = curve of first compound, second compound 10 µM
[7] = second compound 0.0316 µM, first compound 0.0316 µM
[8] = second compound 0.0316 µM, first compound 0.1 µM
[9] = second compound 0.0316 µM, first compound 0.316 µM
[10] = second compound 0.0316 µM, first compound 1 µM
[11] = second compound 0.1 µM, first compound 0.0316 µM
[12] = second compound 0.1 µM, first compound 0.1 µM
[13] = second compound 0.1 µM, first compound 0.316 µM
[14] = second compound 0.1 µM, first compound 1 µM
[15] = second compound 0.316 µM, first compound 0.0316 µM
[16] = second compound 0.316 µM, first compound 0.1 µM
[17] = second compound 0.316 µM, first compound 0.316 µM
[18] = second compound 0.316 µM, first compound 1 µM
[19] = second compound 1 µM, first compound 0.0316 µM
[20] = second compound 1 µM, first compound 0.1 µM
[21] = second compound 1 µM, first compound 0.316 µM
[22] = second compound 1 µM, first compound 1 µM
[23] = second compound 3.16 µM, first compound 0.0316 µM
[24] = second compound 3.16 µM, first compound 0.1 µM
[25] = second compound 3.16 µM, first compound 0.316 µM
[26] = second compound 3.16 µM, first compound 1 µM
[27] = second compound 10 µM, first compound 0.0316 µM
[28] = second compound 10 µM, first compound 0.1 µM
[29] = second compound 10 µM, first compound 0.316 µM
[30] = second compound 10 µM, first compound 1 µM
[31] = second compound 0.0316 µM, first compound 3.16 µM
[32] = second compound 0.0316 µM, first compound 10 µM
[33] = second compound 0.1 µM, first compound 3.16 µM
[34] = second compound 0.1 µM, first compound 10 µM
[35] = second compound 0.316 µM, first compound 3.16 µM
[36] = second compound 0.316 µM, first compound 10 µM
[37] = second compound 1 µM, first compound 3.16 µM
[38] = second compound 1 µM, first compound 10 µM
[39] = second compound 3.16 µM, first compound 3.16 µM
[40] = second compound 3.16 µM, first compound 10 µM
[41] = second compound 10 µM, first compound 3.16 µM
[42] = second compound 10 µM, first compound 10 µM
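Further: spheroids exposed to compounds for seven days.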
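Wherever viability, T/C is given: 100% = DMSO vehicle control wells.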

CCc1c2c(nc3ccc(O)cc13)-c1cc3c(c(=O)n1C2)COC(=O)[C@]3(O)CC + CN1CCN(c2cc(C(=O)Nc3cc4cc(-c5cnn(C)c5)ccc4cn3)ccn2)CC1
active: viability, T/C [8] 7.09% | viability, T/C [9] 8.74% | viability, T/C [10] 11.7% | viability, T/C (second compound 1 µM, first compound 0.00316 µM) 2.16% | viability, T/C (second compound 1 µM, first compound 0.01 µM) 3.01% | viability, T/C [19] 7.32% | viability, T/C [20] 8.2% | viability, T/C [21] 13.4% | viability, T/C [22] 15.4% | viability, T/C (second compound 3.16 µM, first compound 0.00316 µM) 3.22% | viability, T/C (second compound 3.16 µM, first compound 0.01 µM) 5.26% | viability, T/C [23] 11.6% | viability, T/C [24] 11.3% | viability, T/C [25] 14.1% | viability, T/C [26] 13% | viability, T/C (second compound 10 µM, first compound 0.00316 µM) 2.58% | viability, T/C (second compound 10 µM, first compound 0.01 µM) 4.97% | viability, T/C [27] 9.49% | viability, T/C [28] 8.95% | viability, T/C [29] 11.7% | viability, T/C [30] 14%
inactive: viability, T/C (second compound 0.0316 µM, first compound 0.00316 µM) 38.6% | viability, T/C (second compound 0.0316 µM, first compound 0.01 µM) 20% | viability, T/C [7] 11.3% | viability, T/C (second compound 0.1 µM, first compound 0.00316 µM) 33.3% | viability, T/C (second compound 0.1 µM, first compound 0.01 µM) 16.6% | viability, T/C [11] 9.62% | viability, T/C [12] 6.3% | viability, T/C [13] 10.2% | viability, T/C [14] 15.5% | viability, T/C (second compound 0.316 µM, first compound 0.00316 µM) 26.4% | viability, T/C (second compound 0.316 µM, first compound 0.01 µM) 12.7% | viability, T/C [15] 8.57% | viability, T/C [16] 8% | viability, T/C [17] 11.9% | viability, T/C [18] 13.1%
< 0.00316 µM: IC50 [1] | IC50 [2] | IC50 [3] | IC50 [4] | IC50 [5] | IC50 [6]

CCCS(=O)(=O)Nc1ccc(F)c(C(=O)c2c[nH]c3ncc(-c4ccc(Cl)cc4)cc23)c1F + CN1CCN(c2cc(C(=O)Nc3cc4cc(-c5cnn(C)c5)ccc4cn3)ccn2)CC1
inactive: viability, T/C [7] 112% | viability, T/C [8] 98.8% | viability, T/C [9] 98.3% | viability, T/C [10] 111% | viability, T/C [31] 93.8% | viability, T/C [32] 111% | viability, T/C [11] 105% | viability, T/C [12] 112% | viability, T/C [13] 103% | viability, T/C [14] 103% | viability, T/C [33] 96.5% | viability, T/C [34] 94.5% | viability, T/C [15] 84.1% | viability, T/C [16] 99.5% | viability, T/C [17] 102% | viability, T/C [18] 96.2% | viability, T/C [35] 97.9% | viability, T/C [36] 64.2%
> 10 µM: IC50 [1] | IC50 [2] | IC50 [3]
< 0.0316 µM: IC50 [4] | IC50 [5] | IC50 [6]
active: viability, T/C [19] 0.91% | viability, T/C [20] 2.34% | viability, T/C [21] 4.24% | viability, T/C [22] 1.9% | viability, T/C [37] 5.13% | viability, T/C [38] 3.9% | viability, T/C [23] 2.27% | viability, T/C [24] 3.77% | viability, T/C [25] 2.71% | viability, T/C [26] 3.9% | viability, T/C [39] 3.24% | viability, T/C [40] 5.64% | viability, T/C [27] 1.34% | viability, T/C [28] 4.22% | viability, T/C [29] 2.17% | viability, T/C [30] 3.01% | viability, T/C [41] 4.86% | viability, T/C [42] 6.03%

COC1C=CCC(C)C(C)S(=O)(=O)NC(=O)c2ccc3c(c2)N(CC2CCC21)CC1(CCCc2cc(Cl)ccc21)CO3 (configuration not stated) + CNC(=O)c1ccc(Nc2nc(OC3CCCC3)c3c(-c4ccc5nc(C)oc5c4)c[nH]c3n2)c(OC)c1
inactive: viability, T/C [7] 88.7% | viability, T/C [8] 82.8% | viability, T/C [9] 96.8% | viability, T/C [10] 105% | viability, T/C [31] 103% | viability, T/C [32] 85.9% | viability, T/C [11] 96% | viability, T/C [12] 99.7% | viability, T/C [13] 105% | viability, T/C [14] 96.4% | viability, T/C [33] 92.8% | viability, T/C [34] 91.3% | viability, T/C [15] 82.5% | viability, T/C [16] 77.9% | viability, T/C [17] 89.8% | viability, T/C [18] 89.7% | viability, T/C [35] 98.8% | viability, T/C [36] 102% | viability, T/C [19] 83.2% | viability, T/C [20] 74.1% | viability, T/C [21] 73.7% | viability, T/C [22] 74.9% | viability, T/C [37] 91.8% | viability, T/C [38] 105% | viability, T/C [23] 71.2% | viability, T/C [24] 69.7% | viability, T/C [25] 72.9% | viability, T/C [26] 68.4% | viability, T/C [39] 94.2% | viability, T/C [40] 102% | viability, T/C [27] 65.5% | viability, T/C [28] 68.6% | viability, T/C [29] 69.1% | viability, T/C [30] 66.7% | viability, T/C [41] 82.3% | viability, T/C [42] 85.9%
> 10 µM: IC50 [1] | IC50 [2] | IC50 [3] | IC50 [4] | IC50 [5] | IC50 [6]

Nc1ccccc1NC(=O)c1ccc(CNC(=O)OCc2cccnc2)cc1
6.87 µM and 7.34 µM: IC50 (curve of compound)
inactive: viability, T/C (compound 0.0316 µM) 83.9% and 90.3% | viability, T/C (compound 0.1 µM) 105% and 96.6% | viability, T/C (compound 0.316 µM) 94.3% and 91.9% | viability, T/C (compound 1 µM) 92.6% and 90.3% | viability, T/C (compound 3.16 µM) 88.2% and 84.8% | viability, T/C (compound 10 µM) 31.5% and 37%

Cn1ncnc1[C@H]1c2n[nH]c(=O)c3cc(F)cc(c23)N[C@@H]1c1ccc(F)cc1
inactive: viability, T/C (compound 0.000316 µM) 94.6% and 84.6% | viability, T/C (compound 0.001 µM) 88.2% and 97.3% | viability, T/C (compound 0.00316 µM) 100% and 92.9% | viability, T/C (compound 0.01 µM) 94.7% and 89.8% | viability, T/C (compound 0.0316 µM) 94.3% and 105% | viability, T/C (compound 0.1 µM) 97.9% and 98.6%
> 0.1 µM: IC50 (curve of compound)

CC(Nc1ccc2c(c1)OCCn1cc(N3C(=O)OCC3C(F)F)nc1-2)C(N)=O (configuration not stated) + CNC(=O)c1ccc(Nc2nc(OC3CCCC3)c3c(-c4ccc5nc(C)oc5c4)c[nH]c3n2)c(OC)c1
> 10 µM: IC50 [1] | IC50 [2] | IC50 [3]
0.4 µM: IC50 [6]
inactive: viability, T/C [7] 93.5% | viability, T/C [8] 119% | viability, T/C [9] 105% | viability, T/C [10] 97.2% | viability, T/C [31] 90.4% | viability, T/C [32] 79.3% | viability, T/C [11] 92.3% | viability, T/C [12] 116% | viability, T/C [13] 102% | viability, T/C [14] 89.8% | viability, T/C [33] 75.2% | viability, T/C [34] 67.5% | viability, T/C [15] 76.8% | viability, T/C [16] 82.1% | viability, T/C [17] 71.1% | viability, T/C [18] 63.8% | viability, T/C [35] 63.3% | viability, T/C [36] 54.1% | viability, T/C [19] 81.8% | viability, T/C [20] 64.8% | viability, T/C [21] 63.2% | viability, T/C [22] 57.8% | viability, T/C [37] 47.5% | viability, T/C [38] 43.7% | viability, T/C [23] 68.2% | viability, T/C [24] 59% | viability, T/C [25] 50% | viability, T/C [26] 45.8% | viability, T/C [39] 38.7% | viability, T/C [40] 36.6% | viability, T/C [27] 61% | viability, T/C [28] 56.6% | viability, T/C [29] 50.1% | viability, T/C [30] 45.5% | viability, T/C [41] 41.5% | viability, T/C [42] 33.8%
2.51 µM: IC50 [4]
0.368 µM: IC50 [5]
